Reference: patent EP0298890A2, “New 2-(P-isobutylphenyl)-propionic acid ester and process for the preparation thereof” (Sune Coma, Nuria, priority 1987, dated 1989)

Key:
rat [1] = assay: carrageenin test p.o. in the rat (antiinflammatory effect); type: in vivo; details: comparison of ED₅₀ values
rat [2] = assay: phenylbenzoquinone test p.o. in the rat (analgesic effect); type: in vivo; details: comparison of ED₅₀ values
solubility in water = type: physicochemical; details: qualitative statement, no method given

solubility in water compared with the formula II acid (solubility in water): more soluble in water
SMILES: CC(C)Cc1ccc(C(C)C(=O)OCCN(C)C)cc1 (stereo not drawn) [I, N,N-dimethylaminoethanol 2-(p-isobutylphenyl)-propionate]
antiinflammatory activity compared with the formula II compound (rat [1]): same antiinflammatory activity
analgesic activity compared with the formula II compound (rat [2]): twice as active as an analgesic
